# Reference: US7700553B2, “Selective inhibition of NF-κB activation by peptides designed to disrupt nemo oligomerization” (priority 2003, dated 2010)
# Ends that are not written are not given here. BODIPY = not defined here
# Key:
# [1] = tested on: LPS-induced NF-κB activation in 70Z/3-C3 cells; test: NF-κB inhibition assay, first procedure (NF-κB dependent β-galactosidase reporter, LPS stimulation); assay type: cell-based, murine; conditions: 20 μM peptide; for effect on LPS-induced NF-κB activation (in words): 2 h, then 5 h LPS
# Experimental: The resulting cell line, 70Z3-C3, was incubated for 2 hours in the absence or in the presence of 20 μM of antennapedia peptide (Ant), or BODIPY-labeled antennapedia peptide (BODIPY-Ant), or BODIPY-labeled antennapedia peptide coupled to CC2 (BODIPY-Ant-CC2) or LZ (BODIPY-Ant-LZ) peptides, After peptide internalization, cells were treated for 5 hours with LPS (3 μg/ml, (+) in left panel) or untreated (right panel and (−) in left panel) and the NF-κB activity was measured by β-galactosidase assay. […] Cells were treated as in (A) but with different concentration of peptide as indicated. The potential of each peptide to inhibit LPS-induced NF-κB activation was measured by determining the IC50 value that correspond to 50% inhibition of LPS-induced NF-κB activation as compared to the control (no peptide) (C). […] Control (no peptide) or CC2, or LZ peptides, with (BODIPY-ANT-CC2, BODIPY-ANT-LZ) or without the antennapedia sequence at the N-terminus (CC2, LZ) were incubated for 2 hours with 70Z3-C3 cells followed with (+) or without (−) the LPS-treatment for 3 hours. NF-κB activity was then measured by β-galactosidase assay.
# In a first procedure 2.2×10^5 70Z/3-C3 cells in 220 μl of RPMI 1640 supplemented with 10% fetal calf serum (FCS) and 50 μM β-mercaptoethanol were placed in a 96-well plate and incubated with various concentrations of peptide (0 to 20 μM) at 37° C. in 5% CO2 incubator. After two hours an equal portion (100 μl) of each cell sample transferred in two wells containing each 10^5 cells. One aliquot of cells was then treated for 5 hours with lipopolysaccharides from Salmonella abortus (Sigma) at 0.5 μg/ml final concentration, and the other one left-treated. After 5 hours, cells were centrifuged at 400×g for 5 min at room temperature and the cell pellets were washed three times with cold PBS (250 μl) by centrifugation. Cells were then lysed in the lysis buffer (25 mM tris-phosphate buffer at pH 7.8 containing 8 mM magnesium chloride, 1 mM dithioerythreitol, 1% Triton X-100, 15% glycerol and a protease inhibitor mixture (Roche)), and samples were centrifuged at 4° C. for 20 min to clarify the lysate. The supernatant was then kept on ice, and 30 μl was then assayed to measure the β-galactosidase activity with a plate luminometer (Berthold) using the galacton-star as chemiluminescent substrate (BD Biosciences Clontech, Bronstein et al., 1989). Background of reaction was measured by mixing for 1 hour 30 μl of lysis buffer with the reaction buffer (196 μl) and the galacton-star substrate (4 μl) provided by BD Biosciences.
# [2] = biological target: T1, CC2 peptide composing the minimal oligomerization domain of NEMO (Mus musculus, UniProt O88522); test: Fluorescence anisotropy titration with CC2 peptide; assay type: binding, murine; conditions: in vitro, fluorescence polarization
# T1 construct: SKGMQLEDLRQQLQQAEEA; made in house; host or cells: chemical solid-phase peptide synthesis (Fmoc/tBu), not expressed
# T1 sequence (O88522 248-287): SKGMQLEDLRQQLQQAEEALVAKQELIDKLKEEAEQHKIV
# Experimental: FIG. 7: Association of Ant-CC2 and Ant-LZ Peptides to the CC2 Peptide (A) Direct titration of BODIPY-Ant-CC2 (1 μM) with CC2 by fluorescence anitropy. The concentration of CC2 was determined by amino acid analysis. Anisotropy values of BODIPY-Ant-CC2 in milliunits (mA) were plotted against an increasing concentration of the CC2 peptide. […] The two dashed lines represent a stoichiometric titration and intersect at an CC2 concentration of […]. Given the 1 μM concentration of the BODIPY-Ant-CC2, this gives a complex stoechiometrie of 0.8. (B) Direct titration of BODIPY-Ant-LZ (0.1 μM with CC2 by fluorescence anitropy. The anisotropy values of the BODIPY-Ant-LZ alone (white bar) or in the presence of the CC2 peptide (30 μM, grey bar; 100 μM, black bar) are given in milliunits (mA).
# Anisotropy measurements were performed with a PTI Quantamaster fluorometer equipped with polarizers for the excitation and emission beams. This instrument uses a PMT in the L-configuration. […] Steady-state fluorescence anisotropy was expressed as millianisotropy (mA) and was calculated according to the equations: (1) A=(IVV−GIVH)/(IVV+2GIVH); (2) G=IHV/IHH; where A is anisotropy, G is a correction factor for wavelength-dependent distortion and I is the fluorescence intensity component (subscript referring to the vertical and horizontal positioning at the excitation and emission polarizers, respectively). […]
# [3] = tested on: LPS-induced NF-κB activation in 70Z/3-C3 cells; test: NF-κB inhibition assay, second more stringent procedure (peptide washed out, 24 h growth before LPS); assay type: cell-based, murine; conditions: 10 μM peptide
# Text: FIG. 4: Specific Inhibition of NF-κB Activation in Response to LPS Depends on a Few Mutations in the Hydrophobic Core of CC2 and LZ Coiled-Coils Left panels show a helical wheel diagram of CC2 (A) and LZ (B) peptides. The view is from the top the molecule. The (a) through (g) positions, which are an essential feature of coiled coil sequence (Vinson, 2002, Mol. Cell. Biol.) represent sequential positions in each peptide sequence. The first (a) and fourth (d) positions that are generally occupied by hydrophobic amino acids constitute the hydrophobic core for parallel as well as antiparallel-coiled coils. […] NF-κB activity was measured using the β-galactosidase assay. […]
# FIG. 5: Inhibition of NF-κB Activation by the LZ Peptide Occurs Through the Formation of Specific Coiled-Coil Strands. […] NF-κB activity was measured using the β-galactosidase assay. […]
substance,measurement,setting,value
B-CRQIKIWFQNRRMKWKKLKAQADIYKADFQAERHAREKLVEKKEYLQEQLEQLQREFNKL (C(BODIPY)RQIKIWFQNRRMKWKKLKAQADIYKADFQAERHAREKLVEKKEYLQEQLEQLQREFNKL-NH2; not fully specified (N-terminus); reading uncertain) [BODIPY-Ant-LZ (WT)],effect on LPS-induced NF-κB activation (in words),[1],decreased significantly the NF-κB activation
same,effect on LPS-induced NF-κB activation (in words),[1]; listed as “Leucine zipper” peptide,completely eliminates cell response
same,basal NF-κB activity in the absence of LPS (in words),[1]; no LPS,without affecting the intrinsic basal NF-κB activity
same,binding to the CC2 peptide (in words),[2],binds in vitro to the CC2 peptide
B-CRQIKIWFQNRRMKWKKSKGMQLEDLRQQGQQAEEAGVAKQELGDKLKEEAEQHKIV (C(BODIPY)RQIKIWFQNRRMKWKKSKGMQLEDLRQQGQQAEEAGVAKQELGDKLKEEAEQHKIV-NH2; not fully specified (N-terminus); printed as B-CRQIKIWFQNRRMKWKKSKGMQLEDLRQQGQQAEEAGVAKQELGDKLKEEAEQHKIV; reading uncertain) [BODIPY-Ant-CC2 (Mu)],effect on LPS-induced NF-κB activation (in words),[3],did not affect the NF-κB activation
B-CRQIKIWFQNRRMKWKKLKAQADIYKADFQAERHAREKLVEKKEYSQEQLEQSQREFNKL (C(BODIPY)RQIKIWFQNRRMKWKKLKAQADIYKADFQAERHAREKLVEKKEYSQEQLEQSQREFNKL-NH2; not fully specified (N-terminus); printed as B-CRQIKIWFQNRRMKWKKLKAQADIYKADFQAERHAREKLVEKKEYSQEQLEQSQREFNKL; reading uncertain) [BODIPY-Ant-LZ (Mu)],inhibition of LPS-induced NF-κB activation compared to the control,[3],15%
